Test results from patent US20110124888A1, “STYRYLBENZOFURAN DERIVATIVES AS INHIBITORS FOR BETA-AMYLOID FIBRIL FORMATION AND PREPARATION METHOD THEREOF” (Korea Institute of Science and Technology, priority 2008, published 2011).

How the values were obtained:
[1] = target: T1, beta-amyloid 42 (Aβ42) (Homo sapiens, UniProt P05067); test: Inhibitory effect on the formation of beta-amyloid fibrils in vitro (ThT fluorescence assay); format: biochemical; details: for IC50: In vitro ThT analysis (Aβ42: 25 μM), experiment of Table 1; for % inhibition against the beta-amyloid 42 formation compared with curcumin: Tables 1 to 6, relative to curcumin
T1 construct: Beta-amyloid 42 (Aβ42) was dissolved in dimethylsulfoxide (DMSO)
Description: In order to investigate the inhibitory effect on the formation of beta-amyloid fibrils, the inventive compounds were examined as follows:
Beta-amyloid 42 (Aβ42) was dissolved in dimethylsulfoxide (DMSO) to form a […] Aβ42 stock solution. In addition, ThT (thioflavin T) was dissolved in distilled water to a concentration of 1 mM and subsequently diluted with 50 mM glycin buffer (pH 8.5) to yield a 5 μM ThT stock solution.
45 μL of PBS (phosphate buffer saline, pH 7.4) was added to each of a 96 well fluorescence microplate (white, F-bottom). 5 μL of the 250 μM Aβ42 stock solution was added to each well. The final concentration of each compound obtained in Examples was in a range of 10 to 0.001 μM by adding 2 μL of a solution, which is prepared by dissolving the subject compounds obtained in Examples in DMSO, to each well. At this time, the final concentration of Aβ42 in each well was 25 μM. The plate was then incubated at room temperature for 1 hr, and 150 μL of the 5 μM ThT stock solution was added to each well.
The fluorescence intensity of each well was determined with the multi label fluorescence counter (LS-55 Luminescence spectrometer, Perkin Elmer) at an excitation wavelength of 450 nm (excitation slit width: 10 nm) and an emission wavelength of 482 nm (emission slit width: 10 nm), while adjusting counting time to 1 second. The control group was prepared by adding PBS solution, Aβ42 and DMSO, without adding the inventive compound. % Inhibition on the formation of beta-amyloid fibrils was calculated in accordance with the following equation and IC5O was calculated by using GraphPad Prism version 4.03 Program.
% Inhibition=[1−(C−D)/(A−B)]×100 Equation 1%
A (control group): fluorescence intensity in a group treated with PBS solution, Aβ42, and DMSO
B (blank): fluorescence intensity in a group treated with PBS solution and DMSO
C (experimental group): fluorescence intensity in a group treated with PBS solution, Aβ42, DMSO, and the inventive compound
D (compensation value to the experimental group): fluorescence intensity in a group treated with PBS solution, DMSO, and the inventive compound

[2] = test system: congo red-positive beta-amyloid plagues; test: Immunohistochemistry: congo red-positive beta-amyloid plaque count in hippocampus and cortex of transgenic mice; format: in vivo; details: vs Tg group
Description: The transgenic mice were screened and drug was administered thereto as described in 1) and 2) of Experimental Example 4. The brain was separated from the transgenic mouse and fixed in 10% neutral formalin solution. A region of the brain including the hippocampus and the cortex were subjected to removal, washing, dehydration and paraffin infiltration to obtain paraffin block including the brain tissue. The paraffin block was subjected to thin section in thickness of 8 μm to obtain the sections of all regions of hippocampus. Among them, 10 sections were elected at regular intervals. They were deparaffinized, hydrated, immersed in Mayer's hematoxylin for 1 min and rinsed with tap water. The rinsed tissue was reacted in an alkaline sodium chloride solution for 20 min, after then was reacted in an alkaline congo red solution for 20 min. The resulting tissue was washed with 100% ethyl alcohol, cleared with xylene and mounted using a synthetic mounting medium. In the hippocampus and cortex regions of the tissue preparations strained with congo red, congo red-positive beta-amyloid plagues were counted.

[3] = target: beta-amyloid 42 (Homo sapiens, UniProt P05067); test: Biochemical test: content of beta-amyloid 42 in hippocampus tissue of transgenic mice; format: in vivo; details: hippocampus tissue, based on the content of beta amyloid 42 in the Tg group
[4] = test system: transgenic double tg mice (APPswe, PSEN1 dE9); test: In vivo fear conditioning test in transgenic mice; details: 5 to 12 months of age, based on the freezing (%) of Tg vehicle group
Description: The tails of 3-week old mice born from Male B6C3-Tg (APPswe, PSEN1 dE9, Jackson Laboratory Co., Maine, A) and female B6C3F1 (central Lab. Animal Inc., Korea) were cut in lengths of about 0.5 cm (tail biopsy). The genomic DNAs were extracted from the tail samples and subjected to a genotype analysis to screen transgenic double tg mice.
From 5 months to 12 months after the birth, the mice were administered orally with the compound of Example 9, in an amount of 30 mg/kg or 100 mg/kg every day. As a comparative compound, tramiprosate (Aisen, P. S. et. al., Curr. Alzheimer Res. 2007, 4, 473) was used, which binds to beta-amyloid protein to inhibit the deposition and cytotoxicity to the protein. The compounds were administrated.
3) Fear Conditioning Test
At the First day of training, the mice were placed in a conditioning box and adjusted for 2 min. The fear conditioning was performed with a conditional stimulus (CS) of 75 dB for 20 sec, together with an electrical stimulus (unconditional stimulus (US)) of 0.5 mA for final 2 sec in the conditional stimulus period. After 1 min, the animals were transferred to a cage. After 24 hrs, the retention test was performed. The animals were placed in the same conditioning box as used above and observed for 5 min. The freezing response was measured without CS and US. The freezing response is defined in the state of the animals keeping still except for breathing.

T1 sequence (P05067 672-713 limits assumed): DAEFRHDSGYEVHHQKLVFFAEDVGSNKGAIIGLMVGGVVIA
Sequence of beta-amyloid 42 (P05067 672-713 limits assumed): as above

SMILES | IC50 [1] | % inhibition against the beta-amyloid 42 formation compared with curcumin [1] | melting point | Reduction rate (%) of beta-amyloid plaques, cortex ([2]; 30 mg/kg) | Reduction rate (%) of beta-amyloid plaques, hippocampus ([2]; 30 mg/kg) | Total reduction rate (%) of beta-amyloid plaques ([2]; 30 mg/kg) | Reduction rate (%) of beta-amyloid plaques, cortex ([2]; 100 mg/kg) | Reduction rate (%) of beta-amyloid plaques, hippocampus ([2]; 100 mg/kg) | Total reduction rate (%) of beta-amyloid plaques ([2]; 100 mg/kg) | Reduction rate (%) of beta amyloid 42 content ([3]; 30 mg/kg) | Reduction rate (%) of beta amyloid 42 content ([3]; 100 mg/kg) | Increase rate (fold) of freezing ([4]; 30 mg/kg orally every day) | Increase rate (fold) of freezing ([4]; 100 mg/kg orally every day)
CN(C)c1ccc(C=Cc2cc3cc(O)ccc3o2)cc1 [Compound 3, 5-Hydroxy-2-(4-dimethylaminostyryl)benzofuran] | 0.163 µM | superior % inhibition | 177 to 178 °C |  |  |  |  |  |  |  |  |  | 
Cc1ccc2oc(C=Cc3ccc(N(C)C)cc3)cc2c1 [Compound 4, 5-methyl-2-(4-dimethylaminostyryl)benzofuran] | 0.128 µM | superior % inhibition | 188 to 189 °C |  |  |  |  |  |  |  |  |  | 
COc1ccc2oc(C=Cc3ccc(N(C)C)c(OC)c3)cc2c1 [Compound 22, 5-methoxy-2-(3-methoxy-4-dimethylaminostyryl)benzofuran] | 0.156 µM | superior % inhibition | 226.5 to 227.5 °C |  |  |  |  |  |  |  |  |  | 
NCCCS(=O)(=O)O [Tramiprosate, tramiprosate, reference compound] |  |  |  | 32% | 7% | 29% | 12% | 7% | 11% | 8% | 16% | 2.3 fold | 1.8 fold
